Test results taken from ChEMBL document CHEMBL2434896, “Carbonic anhydrase inhibitors. Synthesis of heterocyclic 4-substituted pyridine-3-sulfonamide derivatives and their inhibition of the human cytosolic isozymes I and II and transmembrane tumor-associated isozymes IX and XII” (Eur J Med Chem, 2013).
Activity calls are given as the source filed them. No cut-off for these calls is given here.

Columns and labels:
[1] = tested on: Malme-3M; experiment: Growth inhibition of human MALME-3M cells at 10 uM after 48 hrs by sulforhodamine B assay; assay type: functional
[2] = tested on: LOX IMVI; experiment: Growth inhibition of human LOXIMVI cells at 10 uM after 48 hrs by sulforhodamine B assay; assay type: functional; conditions: read-out: GI
[3] = tested on: SNB-19; experiment: Growth inhibition of human SNB19 cells at 10 uM after 48 hrs by sulforhodamine B assay; assay type: functional
[4] = tested on: SF-539; experiment: Growth inhibition of human SF539 cells at 10 uM after 48 hrs by sulforhodamine B assay; assay type: functional; conditions: SF-539, 48 h, read-out: GI
[5] = tested on: SF-268; experiment: Growth inhibition of human SF268 cells at 10 uM after 48 hrs by sulforhodamine B assay; assay type: functional
[6] = tested on: KM12; experiment: Growth inhibition of human KM12 cells at 10 uM after 48 hrs by sulforhodamine B assay; assay type: functional
[7] = tested on: HT-29; experiment: Growth inhibition of human HT-29 cells at 10 uM after 48 hrs by sulforhodamine B assay; assay type: functional; conditions: HT-29, 48 h, read-out: GI
[8] = tested on: HCT-15; experiment: Growth inhibition of human HCT15 cells at 10 uM after 48 hrs by sulforhodamine B assay; assay type: functional
[9] = tested on: HCT-116; experiment: Growth inhibition of human HCT116 cells at 10 uM after 48 hrs by sulforhodamine B assay; assay type: functional
[10] = tested on: HCC 2998; experiment: Growth inhibition of human HCC2998 cells at 10 uM after 48 hrs by sulforhodamine B assay; assay type: functional
[11] = tested on: COLO 205; experiment: Growth inhibition of human COLO205 cells at 10 uM after 48 hrs by sulforhodamine B assay; assay type: functional
[12] = tested on: NCI-H322M; experiment: Growth inhibition of human NCI-H322M cells at 10 uM after 48 hrs by sulforhodamine B assay; assay type: functional
[13] = tested on: NCI-H226; experiment: Growth inhibition of human NCI-H226 cells at 10 uM after 48 hrs by sulforhodamine B assay; assay type: functional; conditions: NCI-H226, 48 h, read-out: GI
[14] = tested on: HOP-62; experiment: Growth inhibition of human HOP62 cells at 10 uM after 48 hrs by sulforhodamine B assay; assay type: functional
[15] = tested on: SR; experiment: Growth inhibition of human SR cells at 10 uM after 48 hrs by sulforhodamine B assay; assay type: functional; conditions: read-out: GI
[16] = tested on: MOLT-4; experiment: Growth inhibition of human MOLT4 cells at 10 uM after 48 hrs by sulforhodamine B assay; assay type: functional; conditions: MOLT-4, 48 h, read-out: GI
[17] = tested on: K562; experiment: Growth inhibition of human K562 cells at 10 uM after 48 hrs by sulforhodamine B assay; assay type: functional; conditions: K562, 48 h, read-out: GI
[18] = tested on: HL-60(TB); experiment: Growth inhibition of human HL-60(TB) cells at 10 uM after 48 hrs by sulforhodamine B assay; assay type: functional; conditions: HL-60, 48 h, read-out: GI
[19] = tested on: CCRF-CEM; experiment: Growth inhibition of human CCRF-CEM cells at 10 uM after 48 hrs by sulforhodamine B assay; assay type: functional; conditions: read-out: GI
[20] = biological target: Carbonic anhydrase 9 (Homo sapiens, UniProt Q16790); experiment: Inhibition of human carbonic anhydrase 9 after 15 mins by stopped flow CO2 hydration assay
[21] = tested on: MDA-MB-468; experiment: Growth inhibition of human MDA-MB-468 cells at 10 uM after 48 hrs by sulforhodamine B assay; assay type: functional; conditions: MDA-MB-468, 48 h, read-out: GI
[22] = tested on: T47D; experiment: Growth inhibition of human T47D cells at 10 uM after 48 hrs by sulforhodamine B assay; assay type: functional; conditions: read-out: GI
[23] = tested on: BT-549; experiment: Growth inhibition of human BT549 cells at 10 uM after 48 hrs by sulforhodamine B assay; assay type: functional
[24] = tested on: Hs-578T; experiment: Growth inhibition of human Hs 578T cells at 10 uM after 48 hrs by sulforhodamine B assay; assay type: functional
[25] = tested on: MDA-MB-231; experiment: Growth inhibition of human MDA-MB-231 cells at 10 uM after 48 hrs by sulforhodamine B assay; assay type: functional
[26] = tested on: MCF7; experiment: Growth inhibition of human MCF7 cells at 10 uM after 48 hrs by sulforhodamine B assay; assay type: functional; conditions: MCF7, 48 h, read-out: GI
[27] = tested on: DU-145; experiment: Growth inhibition of human DU145 cells at 10 uM after 48 hrs by sulforhodamine B assay; assay type: functional
[28] = tested on: UO-31; experiment: Growth inhibition of human UO31 cells at 10 uM after 48 hrs by sulforhodamine B assay; assay type: functional; conditions: UO-31, 48 h, read-out: GI
[29] = tested on: TK-10; experiment: Growth inhibition of human TK10 cells at 10 uM after 48 hrs by sulforhodamine B assay; assay type: functional
[30] = tested on: SN12C; experiment: Growth inhibition of human SN12C cells at 10 uM after 48 hrs by sulforhodamine B assay; assay type: functional; conditions: read-out: GI
[31] = tested on: RXF 393; experiment: Growth inhibition of human RXF393 cells at 10 uM after 48 hrs by sulforhodamine B assay; assay type: functional
[32] = tested on: CAKI-1; experiment: Growth inhibition of human CAKI-1 cells at 10 uM after 48 hrs by sulforhodamine B assay; assay type: functional
[33] = tested on: A498; experiment: Growth inhibition of human A498 cells at 10 uM after 48 hrs by sulforhodamine B assay; assay type: functional
[34] = tested on: 786-0; experiment: Growth inhibition of human 786-0 cells at 10 uM after 48 hrs by sulforhodamine B assay; assay type: functional
[35] = tested on: NCI/ADR-RES; experiment: Growth inhibition of human NCI-ADR-RES cells at 10 uM after 48 hrs by sulforhodamine B assay; assay type: functional
[36] = tested on: OVCAR-5; experiment: Growth inhibition of human OVCAR5 cells at 10 uM after 48 hrs by sulforhodamine B assay; assay type: functional
[37] = tested on: OVCAR-3; experiment: Growth inhibition of human OVCAR3 cells at 10 uM after 48 hrs by sulforhodamine B assay; assay type: functional
[38] = tested on: IGROV-1; experiment: Growth inhibition of human IGROV1 cells at 10 uM after 48 hrs by sulforhodamine B assay; assay type: functional
[39] = tested on: UACC-62; experiment: Growth inhibition of human UACC62 cells at 10 uM after 48 hrs by sulforhodamine B assay; assay type: functional; conditions: UACC-62, 48 h, read-out: GI
[40] = tested on: SK-MEL-28; experiment: Growth inhibition of human SK-MEL-28 cells at 10 uM after 48 hrs by sulforhodamine B assay; assay type: functional, cell-based
[41] = tested on: SK-MEL-2; experiment: Growth inhibition of human SK-MEL-2 cells at 10 uM after 48 hrs by sulforhodamine B assay; assay type: functional
[42] = tested on: M14; experiment: Growth inhibition of human M14 cells at 10 uM after 48 hrs by sulforhodamine B assay; assay type: functional
[43] = tested on: HOP-92; experiment: Growth inhibition of human HOP92 cells at 10 uM after 48 hrs by sulforhodamine B assay; assay type: functional
[44] = tested on: OVCAR-8; experiment: Growth inhibition of human OVCAR8 cells at 10 uM after 48 hrs by sulforhodamine B assay; assay type: functional
[45] = tested on: UACC-257; experiment: Growth inhibition of human UACC257 cells at 10 uM after 48 hrs by sulforhodamine B assay; assay type: functional

SMILES: NS(=O)(=O)c1cnccc1N1CCN(c2ccc(Cl)cc2)CC1
- growth inhibition (GI) [1]: inactive
- inhibition of growth at 10 µM [2]: 4%
- growth inhibition (GI) [3]: inactive
- inhibition of growth at 10 µM [4]: 8%
- growth inhibition (GI) [5]: inactive
- growth inhibition (GI) [6]: inactive
- inhibition of growth at 10 µM [7]: 7%
- inhibition of growth at 10 µM ([8]; HCT-15, 48 h, read-out: GI): 5%
- inhibition of growth at 10 µM ([9]; HCT-116, 48 h, read-out: GI): 5%
- growth inhibition (GI) [10]: inactive
- growth inhibition (GI) [11]: inactive
- inhibition of growth at 10 µM ([12]; read-out: GI): 11%
- inhibition of growth at 10 µM [13]: 13%
- growth inhibition (GI) [14]: inactive
- inhibition of growth at 10 µM [15]: 11%
- inhibition of growth at 10 µM [16]: 25%
- inhibition of growth at 10 µM [17]: 28%
- inhibition of growth at 10 µM [18]: 1%
- inhibition of growth at 10 µM [19]: 17%
- Ki [20]: 0.135 µM
- inhibition of growth at 10 µM [21]: 31%
- inhibition of growth at 10 µM [22]: 32%
- growth inhibition (GI) [23]: inactive
- growth inhibition (GI) [24]: inactive
- inhibition of growth at 10 µM ([25]; MDA-MB-231, 48 h, read-out: GI): 7%
- inhibition of growth at 10 µM [26]: 7%
- growth inhibition (GI) [27]: inactive
- inhibition of growth at 10 µM [28]: 20%
- growth inhibition (GI) [29]: inactive
- inhibition of growth at 10 µM [30]: 5%
- growth inhibition (GI) [31]: inactive
- inhibition of growth at 10 µM ([32]; CAKI-1, 48 h, read-out: GI): 15%
- growth inhibition (GI) [33]: inactive
- growth inhibition (GI) [34]: inactive
- growth inhibition (GI) [35]: inactive
- growth inhibition (GI) [36]: inactive
- growth inhibition (GI) [37]: inactive
- inhibition of growth at 10 µM ([38]; IGROV-1, 48 h, read-out: GI): 10%
- inhibition of growth at 10 µM [39]: 16%
- growth inhibition (GI) [40]: inactive
- growth inhibition (GI) [41]: inactive
- inhibition of growth at 10 µM ([42]; M14, 48 h, read-out: GI): 1%

SMILES: COc1ccccc1N1CCN(c2ccncc2S(N)(=O)=O)CC1
- growth inhibition (GI) [1]: inactive
- inhibition of growth at 10 µM [2]: 2%
- growth inhibition (GI) [3]: inactive
- inhibition of growth at 10 µM [4]: 5%
- growth inhibition (GI) [5]: inactive
- growth inhibition (GI) [6]: inactive
- inhibition of growth at 10 µM [7]: 4%
- growth inhibition (GI) [8]: inactive
- growth inhibition (GI) [9]: inactive
- growth inhibition (GI) [10]: inactive
- growth inhibition (GI) [11]: inactive
- growth inhibition (GI) [12]: inactive
- inhibition of growth at 10 µM [13]: 3%
- growth inhibition (GI) [43]: inactive
- inhibition of growth at 10 µM ([14]; HOP-62, 48 h, read-out: GI): 2%
- inhibition of growth at 10 µM [15]: 17%
- inhibition of growth at 10 µM [16]: 20%
- inhibition of growth at 10 µM [17]: 9%
- inhibition of growth at 10 µM [19]: 7%
- Ki [20]: 0.652 µM
- inhibition of growth at 10 µM [21]: 2%
- inhibition of growth at 10 µM [22]: 2%
- growth inhibition (GI) [23]: inactive
- growth inhibition (GI) [24]: inactive
- growth inhibition (GI) [25]: inactive
- inhibition of growth at 10 µM [26]: 3%
- growth inhibition (GI) [27]: inactive
- inhibition of growth at 10 µM [28]: 10%
- inhibition of growth at 10 µM [30]: 11%
- growth inhibition (GI) [31]: inactive
- growth inhibition (GI) [32]: inactive
- growth inhibition (GI) [33]: inactive
- inhibition of growth at 10 µM ([34]; 786-0, 48 h, read-out: GI): 3%
- growth inhibition (GI) [35]: inactive
- growth inhibition (GI) [44]: inactive
- inhibition of growth at 10 µM ([36]; OVCAR-5, 48 h, read-out: GI): 2%
- growth inhibition (GI) [37]: inactive
- growth inhibition (GI) [38]: inactive
- inhibition of growth at 10 µM [39]: 3%
- growth inhibition (GI) [45]: inactive
- growth inhibition (GI) [40]: inactive
- inhibition of growth at 10 µM ([41]; SK-MEL-2, 48 h, read-out: GI): 5%
- growth inhibition (GI) [42]: inactive
